Measured values as given in US10201585B2, “Methods for treatment of atherosclerosis” (Stealth Peptides International, Inc., priority 2012, dated 2019).
Where “and” joins values, the source holds several entries; their conditions need not be identical. Equal entries are not always repeated. Entries after “also recorded” stand apart in the source; their conditions may differ.

What was measured:
[1] = tested on: Apoprotein E deficient mice; assay: En face analysis of atherosclerotic lesions, thoracic aorta (Sudan IV, % of aortic surface covered by lipid); type: in vivo; details: 12 weeks
Source text: (§1) Apoprotein E deficient mice (Jackson Laboratories, 600 Main Street, Bar Harbor, Me.) were used in this study. The mice were male, 7-8 weeks of age, and between 18-20 g in weight. An initial total cholesterol measurement was made on 30 mice, and the mice were grouped into two groups of 15 to match the total cholesterol measurements. Both groups were fed a “western diet” (40 kcal % butterfat, 0.15% [wt/wt] cholesterol, Harlan Teklad diet TD-88137). Starting at t=0, the control group of 15 mice received vehicle only (phosphate buffered saline at pH 7.4), while the test group of 15 mice received aromatic-cationic peptide reconstituted in phosphate buffered saline. Body weights of the mice were recorded weekly, and mortality checks were performed daily.
(§2) The aromatic-cationic peptide D-Arg-2′6′-Dmt-Lys-Phe-NH2 (sterile lyophilized powder, reconstituted in phosphate buffered saline) was tested. For the 12-week study, test mice received a single, daily dose of the peptide, subcutaneously at 1 mg/kg. Control mice received a single daily dose of vehicle.
(§3) Following the 12 week treatment, mice were euthanized within 48 hours after the last dose by CO2 asphyxiation and the vascular tree was perfused with 5 mL of phosphate buffered saline (pH 7.4). The aorta and aortic sinus were removed for examination. Thoracic aorta were isolated, trimmed of fat, and fixed in formalin for 48-72 hours before analysis. For en face analysis, aortas were laid out and pinned on black matrix for photography, and stained with Sudan IV. Vessels were imaged for surface involvement using a Nikon computerized image analysis system and the percent of the aortic surface area covered by lipid was calculated. Two determinations were done for each image (Quan 1 and Quan 2), and the average was computed. The data were then computed by group and statistically analyzed. Following staining and morphometric analysis, total lipids were extracted from the aortas using the Bligh-Dyer method. WAKO Diagnostics kits (WAKO Diagnostics, Inc., 1600 Bellwood Road Richmond, Va. 23237-1326) were then used to evaluate total cholesterol, free cholesterol, and cholesterol ester. Cholesterol levels were quantitate nad expressed relative to protein levels. Values are expressed as μg lipid per mg protein (see e.g., FIG. 1).

fibroblast cells = assay: Coenzyme Q10 levels in fibroblasts treated with peptide; type: cell-based; details: 10 nM peptide for 16-24 hours or 5 days, DMEM, versus saline treated (FIG. 5)
Description: Fibroblasts were treated with an aromatic-cationic peptide of the present disclosure, and levels of coenzyme Q10 were evaluated.
Fibroblasts were culture by methods known in the art, and treated with the aromatic-cationic peptide D-Arg-2′6′-Dmt-Lys-Phe-NH2 as shown in Table 11 below. Data represents the average n=3-6.
Coenzyme Q10 levels were evaluated by methods known in the art.

[2] = tested on: Apoprotein E deficient mice; assay: Plasma lipid analysis using an autoanalyzer (TC, Trigs, PL, FC, CE by calculation); type: in vivo; set-up: Plasma Trigs (triglycerides) / Trigs (plasma triglycerides): unit not given beside the values; Plasma CE (cholesterol ester, by calculation) / Plasma PL (phospholipids): unit not given here
Source text: as §1, §2
Blood was collected every four weeks (orbital plexis) under isoflurane anesthesia (3%) and blood lipids were determined. Plasma lipid analysis was conducted for both groups at t=0, 4, 6, 8, and 12 weeks. Plasma lipid analysis using an autoanalyzer included total cholesterol (TC), triglycerides (Trigs), phospholipids (PL), free cholesterol (FC), and cholesterol ester (CE, by calculation). Gel electrophoresis was used to measure levels of high-density lipoprotein cholesterol (HDL-C), low-density lipoprotein cholesterol (LDL-C), and very low-density lipoprotein cholesterol (VLDL-C).

[3] = tested on: Apoprotein E deficient mice; assay: Thoracic aorta lipids (Bligh-Dyer extraction, WAKO kits; TC, FC, CE per mg protein); type: in vivo
Source text: as §1, §2, §3

[4] = tested on: Apoprotein E deficient mice; assay: Total lesion area in aortic root 300 μm across aortic valve (cryosections, lipid staining); type: in vivo; set-up: Total lesion area in aortic root 300 μm across aortic valve / Total lesion area in aortic root 300 μm across aortic valve, AVE: unit not given here
Source text: as §1
The aromatic-cationic peptide D-Arg-2′6′-Dmt-Lys-Phe-NH2 (sterile lyophilized powder, reconstituted in phosphate buffered saline) was tested. […]
For the aortic sinus, the heart and approximately 5 mm of the ascending aorta was cut from the remainder of the aorta. […] The sinus was imaged at 5 step levels in the region of interest, i.e., the aortic root, for a total distance of 300 μm and the lipid-staining areas and measured (total cross sectional area) using a Nikon computerized image analysis system. The data were then computed by group and statistically analyzed.

[5] = ApoE deficient mice, western diet, peptide 1 mg/kg s.c. daily, individual mouse (sample 16-30)
[6] = Week 0 (start of treatment, baseline), individual mouse of peptide group (sample 16-30)
[7] = Week 4, individual test mice (sample # 16-30), listed as aromatic-cationic peptide
[8] = Week 8, individual test mice (sample # 16-30), listed as aromatic-cationic peptide
[9] = Week 12, AVE of test mice 16-30
[10] = Week 12, individual test mice (sample # 16-30), listed as aromatic-cationic peptide
[11] = treated versus vehicle at 4, 8 and 12 week time points
[12] = treated versus vehicle, 12 weeks (Table 8, FIG. 2)
[13] = μg lipid per mg protein, peptide 1 mg/kg s.c. daily, 12 weeks, individual mouse (sample 16-30)

D-Arg-2′6′-Dmt-Lys-Phe-NH2
Ave. % of Lesion (average of Quan 1 and Quan 2) [1, 5]: 2.615% and 0.892% and 9.027% and 3.019% and 7.009% and 4.833% and 1.996% and 1.205% and 9.948% and 2.763% and 6.814% and 4.734% and 0.834% and 11.239% and 12.990% | Quan 1 (first determination of % of the aortic surface covered by lipid) [1, 5]: 10.000% and 4.700% | Quan 2 (second determination of % of the aortic surface covered by lipid) [1, 5]: 0.870% | Ave (average % of the surface of the aortas showing lesions, group) ([1]; group mean of 15 test mice, peptide 1 mg/kg s.c. daily, vehicle group 7.189): 5.328% | Atherosclerotic lesions in the aorta (% lesion area), in words ([1]; treated versus vehicle, 1 mg/kg s.c. daily (Table 7, FIG. 1A), 1 mg/kg): reduces; also recorded: lower | Coenzyme Q10 levels in fibroblast cells (fibroblast cells): increased | Plasma FC (free cholesterol), AVE ([2]; Week 0 (baseline), group mean of 15 test mice, vehicle group 136): 142 | Plasma Trigs (triglycerides), AVE ([2]; Week 0 (baseline), group mean of 15 test mice, vehicle group 141): 140 | Plasma CE (cholesterol ester, by calculation), AVE ([2]; Week 0 (baseline), group mean of 15 test mice, vehicle group 275): 280 | Plasma PL (phospholipids), AVE ([2]; Week 0 (baseline), group mean of 15 test mice, vehicle group 297): 309 | Plasma TC (total cholesterol), AVE ([2]; Week 0 (baseline), group mean of 15 test mice, vehicle group 411): 422 | Plasma CE (cholesterol ester, by calculation) [2, 6]: 183 and 197 and 242 and 192 and 207 and 204 and 240 and 366 and 196 and 270 and 297 and 382 and 306 and 331 and 588 | Plasma FC (free cholesterol) [2, 6]: 119 and 121 and 134 (2×) and 110 and 116 and 131 and 129 and 184 and 113 and 139 and 170 and 151 and 159 and 220 | Plasma PL (phospholipids) [2, 6]: 267 (3×) and 308 and 255 and 306 and 298 and 369 and 238 and 320 and 313 and 332 and 343 and 338 and 413 | Plasma TC (total cholesterol) [2, 6]: 302 (2×) and 318 and 376 and 323 and 335 and 369 and 550 and 309 and 409 and 431 and 552 and 457 and 490 and 808 | Plasma Trigs (triglycerides) [2, 6]: 75 and 88 (3×) and 117 and 96 and 71 and 138 and 167 and 136 and 151 and 191 and 188 and 154 and 353 | CE (plasma cholesterol ester) ([2]; Week 4, AVE of test mice 16-30): 610 | FC (plasma free cholesterol) ([2]; Week 4, AVE of test mice 16-30): 387 | PL (plasma phospholipid) ([2]; Week 4, AVE of test mice 16-30): 514 | TC (plasma total cholesterol) ([2]; Week 4, AVE of test mice 16-30): 997 | Trigs (plasma triglycerides) ([2]; Week 4, AVE of test mice 16-30): 58 | CE (plasma cholesterol ester) [2, 7]: 491 and 580 and 622 and 731 and 626 and 417 and 574 and 660 and 515 and 536 and 630 and 761 and 581 and 732 and 701 | FC (plasma free cholesterol) [2, 7]: 308 and 344 and 354 (2×) and 408 and 412 and 256 and 366 and 386 and 320 and 286 and 396 and 462 and 516 and 636 | PL (plasma phospholipid) [2, 7]: 422 and 482 and 452 and 560 and 526 and 320 and 506 and 556 and 446 and 416 and 516 and 580 and 510 and 666 and 750 | TC (plasma total cholesterol) [2, 7]: 799 and 924 and 976 and 1139 and 1038 and 673 and 940 and 1046 and 835 and 822 and 1026 and 1223 and 935 and 1248 and 1337 | Trigs (plasma triglycerides) [2, 7]: 18 (2×) and 39 and 28 and 85 and 59 (2×) and 46 and 108 and 33 and 44 (2×) and 67 and 80 and 144 | CE (plasma cholesterol ester) ([2]; Week 8, AVE of test mice 16-30): 932 | FC (plasma free cholesterol) ([2]; Week 8, AVE of test mice 16-30): 350 | PL (plasma phospholipid) ([2]; Week 8, AVE of test mice 16-30): 493 | TC (plasma total cholesterol) ([2]; Week 8, AVE of test mice 16-30): 1282 | Trigs (plasma triglycerides) ([2]; Week 8, AVE of test mice 16-30): 57 | CE (plasma cholesterol ester) [2, 8]: 940 and 710 and 1119 and 865 and 1153 and 653 and 714 and 1085 and 715 and 670 and 1073 and 1048 and 839 and 1130 and 1267 | FC (plasma free cholesterol) [2, 8]: 322 and 294 (2×) and 386 and 318 and 392 and 290 and 388 and 308 (2×) and 286 and 362 and 366 and 404 and 530 | PL (plasma phospholipid) [2, 8]: 416 and 456 and 474 and 448 and 516 (2×) and 424 and 480 and 488 and 436 and 440 and 556 and 470 and 540 and 728 | TC (plasma total cholesterol) [2, 8]: 1262 and 1004 and 1505 and 1183 and 1545 and 943 and 1008 and 1473 and 1023 and 956 and 1435 and 1414 and 1147 and 1534 and 1797 | Trigs (plasma triglycerides) [2, 8]: 34 (3×) and 31 (2×) and 51 (2×) and 48 and 53 and 43 and 75 and 63 and 39 and 67 and 195 | CE (plasma cholesterol ester) [2, 9]: 681 | FC (plasma free cholesterol) [2, 9]: 322 | PL (plasma phospholipid) [2, 9]: 434 | TC (plasma total cholesterol) [2, 9]: 1003 | Trigs (plasma triglycerides) [2, 9]: 55 | CE (plasma cholesterol ester) [2, 10]: 607 and 335 and 597 and 640 and 1002 and 477 and 445 and 476 and 675 and 687 and 960 and 869 and 339 and 904 and 1201 | FC (plasma free cholesterol) [2, 10]: 291 and 205 and 287 and 296 and 418 and 242 and 229 and 269 and 315 and 312 and 419 and 386 and 219 and 413 and 535 | PL (plasma phospholipid) [2, 10]: 366 and 318 and 320 and 432 and 491 and 321 and 363 and 394 and 374 and 423 and 536 and 521 and 340 and 575 and 741 | TC (plasma total cholesterol) [2, 10]: 898 and 540 and 884 and 937 and 1420 and 719 and 674 and 745 and 990 and 999 and 1379 and 1255 and 558 and 1317 and 1736 | Trigs (plasma triglycerides) [2, 10]: 27 and 49 and 10 and 37 (2×) and 18 and 39 (2×) and 13 and 25 and 74 and 89 and 97 and 112 and 158 | Plasma cholesterol ester, in words [2, 11]: reduces | Plasma free cholesterol, in words [2, 11]: reduces | Plasma phospholipid levels, in words [2, 11]: reduces | Plasma total cholesterol, in words [2, 11]: reduces | Plasma triglycerides, in words [2, 11]: reduces | Thoracic aorta FC (free cholesterol), AVE ([3]; group mean of 15 test mice, 12 weeks, vehicle group 7.5): 5.7 µg/mg | Thoracic aorta CE (cholesterol ester), AVE ([3]; group mean of 15 test mice, 12 weeks, vehicle group 22.6): 14.6 µg/mg | Thoracic aorta TC (total cholesterol), AVE ([3]; group mean of 15 test mice, 12 weeks, vehicle group 30.1): 20.4 µg/mg | Cholesterol esters in the thoracic aorta, in words [3, 12]: lower | Free cholesterol in the thoracic aorta, in words [3, 12]: lower | Total cholesterol in the thoracic aorta, in words [3, 12]: lower | Thoracic aorta CE (cholesterol ester) [3, 13]: 13.8 μg/mg and 2.7 μg/mg and 30.3 μg/mg and 14.7 μg/mg and 30.7 μg/mg and 14.1 μg/mg and 4.6 μg/mg (2×) and 5.6 μg/mg (2×) and 28.5 μg/mg and 21.3 μg/mg and 18.6 μg/mg and 11.4 μg/mg and 13.0 μg/mg | Thoracic aorta FC (free cholesterol) [3, 13]: 7.6 μg/mg (2×) and 4.0 μg/mg and 5.1 μg/mg and 3.0 μg/mg (2×) and 8.1 μg/mg and 2.7 μg/mg and 3.5 μg/mg and 14.6 μg/mg and 6.6 μg/mg and 3.8 μg/mg and 3.6 μg/mg and 3.3 μg/mg and 9.5 μg/mg | Thoracic aorta TC (total cholesterol) [3, 13]: 21.4 µg/mg and 6.7 µg/mg and 35.4 µg/mg and 17.7 µg/mg and 38.8 µg/mg and 16.8 µg/mg and 8.1 µg/mg and 20.1 µg/mg and 35.1 µg/mg and 9.4 µg/mg and 24.9 µg/mg and 21.7 µg/mg and 7.9 µg/mg and 19.0 µg/mg and 22.5 µg/mg | Total lesion area in aortic root 300 μm across aortic valve, AVE ([4]; group mean of 15 test mice, 12 weeks, vehicle group 351.77): 282.72 | Total (mean) lesion area in the aortic root, in words ([4]; treated versus vehicle, 12 weeks (Table 9, FIG. 3)): reduces; also recorded: lower
